Patent publication US11535607B2, “Isoindolines as HDAC inhibitors” (Valo Health, Inc., priority 2018, dated 2022)
In brackets after ≈: the same amount, converted by molar mass. Like-named read-outs stand apart in the source and are kept apart here.

What was measured:
HDAC6 = HDAC6 (Homo sapiens (Human), UniProt Q9UBN7); test: HDAC6 electrophoretic mobility shift assay; assay type: biochemical; settings: for IC50: mobility shift assay
[1] = In vitro intrinsic clearance after incubation with mouse liver microsomes; assay type: in vitro ADME; settings: for microsomal stability, in words: comparison
full-length human HDAC11 [2] = molecular target: T1, full-length human HDAC11 (Homo sapiens (Human), UniProt Q96DB2); test: Probe binding HDAC11 time resolved fluorescence (TRF) assay; settings: Table 2, read-out: HDAC11 IC50 Range
full-length human HDAC11 [3] = molecular target: T1, full-length human HDAC11; test: HDAC11 deacetylase electrophoretic mobility shift assay (Nanosyn); assay type: biochemical; settings: for HDAC11 potency, in words: comparison with parent or lead compound; for IC50: mobility shift assay
Procedure: The measurement of HD AC 11 deacetylase activity was performed using an electrophoretic mobility shift assay by Nanosyn (Santa Clara, Calif.). Full length human recombinant HD AC 11 protein was expressed in baculoviral system and purified by affinity chromatography. The enzymatic reactions were assembled in 384 well plates in a total volume of 25 μL in a reaction buffer composing: 100 mM HEPES, pH 7.5, 25 mM KCl, 0.1% bovine serum albumin, 0.01% Triton X-100, 1% DMSO (from compounds), 2 μM of the fluorescently labeled peptide substrate and enzyme. The enzyme was added at a final concentration of 10 nM. The peptide substrate FAM-RHKK(tri-fluor-Ac)—NH2 was used. The compounds were tested at 12 concentrations spaced by 3× dilution intervals. Negative control samples (0%-inhibition in the absence of inhibitor) and positive control samples (100%-inhibition) were assembled in replicates of four in each assay plate. The reactions were incubated at 25° C. and quenched by the addition of 45 μL of termination buffer (100 mM HEPES, pH 7.5, 0.01% Triton X-100, 0.05% SDS).
The terminated assay plates were analyzed on LabChip® 3000 microfluidic electrophoresis instrument (Perkin Elmer/Caliper Life Sciences). The fluorescence intensity of the electrophoretically separated de-acetylated product and substrate peptide was measured. Activity in each sample was determined as the product to sum ratio (PSR): P/(S+P), where P is the peak height of the product peptide and S is the peak height of the substrate peptide. Percent inhibition (Pinh) is determined using the following equation: Pinh=(PSR0%−PSRinh)/(PSR0%−PSR100%)*100, where PSRinh, is the product sum ratio in the presence of inhibitor, PSR0% is the average product sum ration in the absence of inhibitor and PSR100% is the average product sum ratio in 100%-inhibition control samples. The IC50 values of inhibitors were determined by fitting the percent inhibition curves with 4 parameter dose-response model using XLfit 4 software.

HDAC11 = HDAC11 (Homo sapiens (Human), UniProt Q96DB2); test: Lipophilic efficiency (pIC50 HDAC11 - clogD7.4)
[4] = Kinetic solubility at pH 7.4; assay type: physicochemical; settings: aqueous buffer, kinetic from dmso stock
[5] = molecular target: HDAC11 fused to Nanoluc luciferase (Homo sapiens (Human), UniProt Q96DB2); test: BRET target engagement cell assay
HDAC5 = HDAC5 (Homo sapiens (Human), UniProt Q9UQL6); test: HDAC5 electrophoretic mobility shift assay; assay type: biochemical; settings: Table 7, read-out: HDAC IC50, HDAC 5
HDAC7 = HDAC7 (Homo sapiens (Human), UniProt Q8WUI4); test: HDAC7 electrophoretic mobility shift assay; assay type: biochemical; settings: Table 7, read-out: HDAC IC50, HDAC 7
HDAC9 = HDAC9 (Homo sapiens (Human), UniProt Q9UKV0); test: HDAC9 electrophoretic mobility shift assay; assay type: biochemical; settings: Table 7, read-out: HDAC IC50, HDAC 9
[6] = Mouse pharmacokinetic study (i.v. and i.p.); assay type: in vivo
Procedure: Based on its overall in vitro profile, 22-8 was advanced to mouse PK studies to measure its suitability as an in vivo tool compound. The pharmacokinetic properties of 22-8 were assessed in male Balb/c nude mice following both intravenous (i.v.) and intraperitoneal (i.p.) dosing (Table 8).

[7] = pIC50 HDAC11 - clogD7.4, Table 6
[8] = read-out: HDAC11 BRET IC50, BRET cell assay, Table 6
[9] = IP 5 mg/kg, male Balb/c nude mice
[10] = mouse, in vivo, IP 5 mg/kg, male Balb/c nude mice
[11] = mouse, in vivo, IV 1 mg/kg, male Balb/c nude mice
[12] = Table 3, mean of at least two runs, read-out: HDAC 11 IC50
[13] = Table 3, mean of at least two runs, read-out: HDAC 6 IC50
[14] = pIC50 HDAC11 - clogD7.4, Table 4

Sequence of HDAC11 (Q96DB2 whole entry): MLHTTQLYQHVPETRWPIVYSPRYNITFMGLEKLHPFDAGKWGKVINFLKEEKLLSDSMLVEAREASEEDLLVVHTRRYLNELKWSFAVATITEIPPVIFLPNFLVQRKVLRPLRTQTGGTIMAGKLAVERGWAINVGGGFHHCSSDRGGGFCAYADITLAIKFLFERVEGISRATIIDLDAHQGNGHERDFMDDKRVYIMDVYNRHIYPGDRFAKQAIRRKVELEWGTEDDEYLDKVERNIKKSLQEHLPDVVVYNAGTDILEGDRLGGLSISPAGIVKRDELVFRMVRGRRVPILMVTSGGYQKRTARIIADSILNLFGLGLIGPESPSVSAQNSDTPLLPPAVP
T1 sequence (Q96DB2 whole entry): as above
Sequence of HDAC11 fused to Nanoluc luciferase (Q96DB2 whole entry, the tested form may be a part): as the sequence (Q96DB2 whole entry) above
Sequence of HDAC6 (Q9UBN7 whole entry, species assumed): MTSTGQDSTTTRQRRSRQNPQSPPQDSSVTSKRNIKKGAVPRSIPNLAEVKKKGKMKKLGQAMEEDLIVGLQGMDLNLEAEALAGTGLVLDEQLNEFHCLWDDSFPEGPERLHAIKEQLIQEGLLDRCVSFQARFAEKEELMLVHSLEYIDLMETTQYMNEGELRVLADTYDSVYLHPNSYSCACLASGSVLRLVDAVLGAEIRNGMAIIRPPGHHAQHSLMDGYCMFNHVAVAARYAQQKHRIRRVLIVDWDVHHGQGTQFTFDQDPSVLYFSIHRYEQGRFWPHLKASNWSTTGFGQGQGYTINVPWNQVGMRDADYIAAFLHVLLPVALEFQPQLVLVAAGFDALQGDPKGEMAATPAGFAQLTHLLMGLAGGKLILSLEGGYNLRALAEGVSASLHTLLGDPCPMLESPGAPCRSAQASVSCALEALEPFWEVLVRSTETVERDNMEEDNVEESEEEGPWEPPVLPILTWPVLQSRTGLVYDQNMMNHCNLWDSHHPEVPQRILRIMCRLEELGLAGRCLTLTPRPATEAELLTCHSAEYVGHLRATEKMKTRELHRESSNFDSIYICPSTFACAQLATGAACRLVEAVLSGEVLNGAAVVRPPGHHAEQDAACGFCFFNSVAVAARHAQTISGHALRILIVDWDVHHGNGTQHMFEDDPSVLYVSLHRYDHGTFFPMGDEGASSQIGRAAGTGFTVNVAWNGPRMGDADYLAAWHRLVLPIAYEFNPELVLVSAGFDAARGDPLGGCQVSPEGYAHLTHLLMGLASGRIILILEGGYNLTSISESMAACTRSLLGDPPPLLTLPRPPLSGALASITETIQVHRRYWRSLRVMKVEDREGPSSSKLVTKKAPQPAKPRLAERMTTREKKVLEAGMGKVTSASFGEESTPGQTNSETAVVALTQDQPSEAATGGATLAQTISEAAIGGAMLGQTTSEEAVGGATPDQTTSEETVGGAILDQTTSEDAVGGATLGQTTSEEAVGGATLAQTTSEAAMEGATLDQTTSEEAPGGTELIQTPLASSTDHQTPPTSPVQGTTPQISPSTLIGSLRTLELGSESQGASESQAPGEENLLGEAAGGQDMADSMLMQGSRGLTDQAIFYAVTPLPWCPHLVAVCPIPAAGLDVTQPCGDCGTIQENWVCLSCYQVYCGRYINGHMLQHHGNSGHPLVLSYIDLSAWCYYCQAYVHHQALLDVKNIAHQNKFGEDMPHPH
Sequence of HDAC5 (Q9UQL6 whole entry): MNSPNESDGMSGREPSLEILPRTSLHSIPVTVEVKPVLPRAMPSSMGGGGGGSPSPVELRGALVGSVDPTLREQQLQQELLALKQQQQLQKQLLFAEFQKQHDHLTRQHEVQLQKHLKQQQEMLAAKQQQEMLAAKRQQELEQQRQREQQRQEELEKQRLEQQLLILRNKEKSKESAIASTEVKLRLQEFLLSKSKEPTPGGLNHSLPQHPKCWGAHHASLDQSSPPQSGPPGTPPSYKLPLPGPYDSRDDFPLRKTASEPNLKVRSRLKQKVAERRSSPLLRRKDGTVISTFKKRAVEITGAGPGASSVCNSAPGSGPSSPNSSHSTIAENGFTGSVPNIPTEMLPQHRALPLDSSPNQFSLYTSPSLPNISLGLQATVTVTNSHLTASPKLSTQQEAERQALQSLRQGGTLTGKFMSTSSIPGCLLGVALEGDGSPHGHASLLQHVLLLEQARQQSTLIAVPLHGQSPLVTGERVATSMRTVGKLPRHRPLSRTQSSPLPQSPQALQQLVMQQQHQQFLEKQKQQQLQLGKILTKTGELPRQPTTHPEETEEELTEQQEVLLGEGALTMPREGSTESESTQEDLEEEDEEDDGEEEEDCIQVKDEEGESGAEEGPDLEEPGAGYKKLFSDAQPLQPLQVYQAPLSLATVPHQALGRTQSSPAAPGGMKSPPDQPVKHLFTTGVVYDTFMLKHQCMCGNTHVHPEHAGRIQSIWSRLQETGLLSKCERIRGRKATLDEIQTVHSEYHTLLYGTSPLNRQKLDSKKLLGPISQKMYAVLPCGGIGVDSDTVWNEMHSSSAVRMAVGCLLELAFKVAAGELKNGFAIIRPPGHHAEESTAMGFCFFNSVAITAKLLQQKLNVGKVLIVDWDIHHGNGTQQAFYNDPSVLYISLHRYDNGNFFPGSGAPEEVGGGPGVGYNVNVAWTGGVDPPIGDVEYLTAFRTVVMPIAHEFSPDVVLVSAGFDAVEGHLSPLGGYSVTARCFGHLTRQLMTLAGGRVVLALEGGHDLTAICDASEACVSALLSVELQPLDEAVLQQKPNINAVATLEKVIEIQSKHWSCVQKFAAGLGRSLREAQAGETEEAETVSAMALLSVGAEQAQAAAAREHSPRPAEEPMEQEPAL
Sequence of HDAC9 (Q9UKV0 whole entry): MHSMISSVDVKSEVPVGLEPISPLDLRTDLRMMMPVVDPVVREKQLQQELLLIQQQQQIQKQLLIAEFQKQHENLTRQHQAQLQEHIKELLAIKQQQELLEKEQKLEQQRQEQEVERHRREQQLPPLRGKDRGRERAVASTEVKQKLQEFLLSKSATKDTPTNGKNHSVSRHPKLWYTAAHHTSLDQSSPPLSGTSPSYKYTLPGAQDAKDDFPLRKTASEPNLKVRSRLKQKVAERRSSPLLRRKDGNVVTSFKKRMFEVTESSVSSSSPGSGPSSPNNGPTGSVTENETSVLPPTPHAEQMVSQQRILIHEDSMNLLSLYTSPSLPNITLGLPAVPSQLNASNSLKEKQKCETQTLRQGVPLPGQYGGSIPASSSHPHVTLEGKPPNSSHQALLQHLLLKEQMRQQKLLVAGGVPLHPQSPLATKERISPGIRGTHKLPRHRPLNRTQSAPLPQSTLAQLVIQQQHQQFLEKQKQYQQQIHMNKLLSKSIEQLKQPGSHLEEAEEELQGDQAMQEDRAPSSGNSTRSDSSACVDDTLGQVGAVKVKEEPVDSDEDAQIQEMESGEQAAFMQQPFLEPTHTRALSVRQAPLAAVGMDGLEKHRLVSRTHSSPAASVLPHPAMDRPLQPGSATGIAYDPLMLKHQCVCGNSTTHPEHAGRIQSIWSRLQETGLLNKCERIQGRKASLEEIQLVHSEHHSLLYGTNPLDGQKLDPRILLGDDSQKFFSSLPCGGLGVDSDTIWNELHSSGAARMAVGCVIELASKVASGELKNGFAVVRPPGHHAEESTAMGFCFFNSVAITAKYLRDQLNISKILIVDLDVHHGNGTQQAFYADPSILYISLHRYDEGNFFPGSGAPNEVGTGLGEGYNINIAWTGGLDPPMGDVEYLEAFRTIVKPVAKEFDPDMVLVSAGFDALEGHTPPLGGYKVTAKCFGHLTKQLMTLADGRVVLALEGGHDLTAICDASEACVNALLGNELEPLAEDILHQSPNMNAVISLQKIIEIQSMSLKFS
Sequence of HDAC7 (Q8WUI4 whole entry): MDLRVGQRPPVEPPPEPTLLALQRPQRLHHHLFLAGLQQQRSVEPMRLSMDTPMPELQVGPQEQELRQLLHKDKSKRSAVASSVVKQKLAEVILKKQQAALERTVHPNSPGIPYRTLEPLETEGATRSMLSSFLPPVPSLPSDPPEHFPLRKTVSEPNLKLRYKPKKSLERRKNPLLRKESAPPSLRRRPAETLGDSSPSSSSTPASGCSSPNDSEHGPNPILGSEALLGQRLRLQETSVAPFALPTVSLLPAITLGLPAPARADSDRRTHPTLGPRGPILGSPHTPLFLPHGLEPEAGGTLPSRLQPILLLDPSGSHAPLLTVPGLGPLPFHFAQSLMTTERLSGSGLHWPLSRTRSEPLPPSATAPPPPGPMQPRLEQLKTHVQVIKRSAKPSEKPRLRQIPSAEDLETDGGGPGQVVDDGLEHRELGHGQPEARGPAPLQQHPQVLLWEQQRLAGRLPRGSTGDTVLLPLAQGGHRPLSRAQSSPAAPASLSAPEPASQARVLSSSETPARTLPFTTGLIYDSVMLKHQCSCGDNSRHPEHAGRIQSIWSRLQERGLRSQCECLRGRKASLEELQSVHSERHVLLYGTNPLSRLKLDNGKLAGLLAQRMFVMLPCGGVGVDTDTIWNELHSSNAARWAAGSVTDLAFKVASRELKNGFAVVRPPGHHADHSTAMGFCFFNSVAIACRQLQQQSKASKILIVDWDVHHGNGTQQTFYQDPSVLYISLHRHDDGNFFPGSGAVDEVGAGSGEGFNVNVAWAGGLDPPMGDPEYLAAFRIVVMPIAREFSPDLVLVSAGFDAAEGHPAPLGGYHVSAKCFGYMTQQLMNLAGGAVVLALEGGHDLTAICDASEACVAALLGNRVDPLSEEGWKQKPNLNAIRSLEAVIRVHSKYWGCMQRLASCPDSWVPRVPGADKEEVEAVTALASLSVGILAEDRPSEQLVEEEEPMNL

In the case of `O=C(NO)c1cccc2c1CN(c1nc3ccccc3[nH]1)C2` [Compound 1-6, 2-(1H-benzo[d]imidazol-2-yl)-N-hydroxyisoindoline-4-carboxamide], the IC50 (HDAC6; Table 4, read-out: HDAC6 IC50) is reported as > 1000 nM, the microsomal CLint ([1]; Table 4, read-out: m-CL-int) is reported as < 50 µL/min/mg and the m-CLint ([1]; Table 5) is reported as “+++ (indicates a m-CLint below 50 μL/min/mg)”. The “microsomal stability, in words” value [1] was “significant microsomal stability”.
With `CC1(C)c2cccc(C(=O)NO)c2CN1c1nc2ccc(C(F)(F)F)cc2[nH]1` [Compound 17-1, N-hydroxy-1,1-dimethyl-2-(6-(trifluoromethyl)-1H-benzo[d]imidazol-2-yl)isoindoline-4-carboxamide] the IC50 (full-length human HDAC11 [2]) was < 500 nM, the “HDAC11 potency, in words” value (full-length human HDAC11 [3]) was “retained the potency” and the IC50 (full-length human HDAC11 [3]; Table 6, read-out: HDAC11 IC50) was < 500 nM. The microsomal CLint ([1]; Table 6) was < 50 µL/min/mg, the “microsomal stability, in words” value [1] was “significant increase in stability” and the LipE (HDAC11; [7]) was “++ (indicates 5.5<LipE≤6.5)”. The solubility [4] was 30 to 55 µM (≈ 11.7 to 21.5 µg/mL).
With `CC1(C)c2cccc(C(=O)NO)c2CN1c1nc2cc(C(F)(F)F)ccc2o1` [Compound 18-1, N-hydroxy-1,1-dimethyl-2-[5-(trifluoromethyl)-1,3-benzoxazol-2-yl]-2,3-dihydro-1H-isoindole-4-carboxamide] the IC50 (full-length human HDAC11 [2]) was < 500 nM, the IC50 (full-length human HDAC11 [3]; Table 6, read-out: HDAC11 IC50) was < 500 nM and the microsomal CLint ([1]; Table 6) was < 50 µL/min/mg. The LipE (HDAC11; [7]) was “++ (indicates 5.5<LipE≤6.5)” and the solubility [4] was ≤ 30 µM.
With `CC1(C)c2cccc(C(=O)NO)c2CN1c1nc2ncccc2o1` [Compound 18-2, N-hydroxy-1,1-dimethyl-2-(oxazolo[4,5-b]pyridin-2-yl)isoindoline-4-carboxamide] the IC50 (full-length human HDAC11 [2]) was < 500 nM, the IC50 (full-length human HDAC11 [3]; Table 6, read-out: HDAC11 IC50) was < 500 nM and the microsomal CLint ([1]; Table 6) was < 50 µL/min/mg. For the same molecule, the LipE (HDAC11; [7]) was “+++ (indicates a LipE>6.5)”, the solubility [4] was > 55 µM and the IC50 [5, 8] was < 500 nM.
For `CC1(C)c2cccc(C(=O)NO)c2CN1c1ccc(C(F)(F)F)cn1` [Compound 22-2, N-hydroxy-1,1-dimethyl-2-(5-(trifluoromethyl)pyridin-2-yl)isoindoline-4-carboxamide], the IC50 (full-length human HDAC11 [2]) was < 500 nM, the IC50 (full-length human HDAC11 [3]; Table 6, read-out: HDAC11 IC50) was < 500 nM and the microsomal CLint ([1]; Table 6) was < 50 µL/min/mg. For the same molecule, the LipE (HDAC11; [7]) was “++ (indicates 5.5<LipE≤6.5)”, the solubility [4] was ≤ 30 µM and the IC50 [5, 8] was < 500 nM.
With `CC1(C)c2cccc(C(=O)NO)c2CN1c1ccc(C(F)(F)F)nc1` [Compound 22-3, N-hydroxy-1,1-dimethyl-2-(6-(trifluoromethyl)pyridin-3-yl)isoindoline-4-carboxamide] the IC50 (full-length human HDAC11 [2]) was < 500 nM, the IC50 (full-length human HDAC11 [3]; Table 6, read-out: HDAC11 IC50) was < 500 nM and the microsomal CLint ([1]; Table 6) was < 50 µL/min/mg. For the same molecule, the LipE (HDAC11; [7]) was “++ (indicates 5.5<LipE≤6.5)”, the solubility [4] was 30 to 55 µM (≈ 10.5 to 19.3 µg/mL) and the IC50 [5] was < 20 nM. For the same molecule, the IC50 [5, 8] was < 500 nM.
For `CC1(C)c2cccc(C(=O)NO)c2CN1c1ncc(C(F)(F)F)cn1` [Compound 22-6, N-hydroxy-1,1-dimethyl-2-(5-(trifluoromethyl)pyrimidin-2-yl)isoindoline-4-carboxamide], the IC50 (full-length human HDAC11 [2]) was < 500 nM, the IC50 (full-length human HDAC11 [3]; Table 6, read-out: HDAC11 IC50) was < 500 nM and the microsomal CLint ([1]; Table 6) was < 50 µL/min/mg. For the same molecule, the LipE (HDAC11; [7]) was “++ (indicates 5.5<LipE≤6.5)”, the solubility [4] was 30 to 55 µM (≈ 10.6 to 19.4 µg/mL) and the IC50 [5, 8] was < 500 nM.
With `CC1(C)c2cccc(C(=O)NO)c2CN1c1cnc(C(F)(F)F)nc1` [Compound 22-7, N-hydroxy-1,1-dimethyl-2-(2-(trifluoromethyl)pyrimidin-5-yl)isoindoline-4-carboxamide] the IC50 (full-length human HDAC11 [2]) was < 500 nM, the IC50 (full-length human HDAC11 [3]; Table 6, read-out: HDAC11 IC50) was < 500 nM and the microsomal CLint ([1]; Table 6) was < 50 µL/min/mg. For the same molecule, the LipE (HDAC11; [7]) was “++ (indicates 5.5<LipE≤6.5)”, the solubility [4] was > 55 µM and the IC50 [5, 8] was < 500 nM.
With `CC1(C)c2cccc(C(=O)NO)c2CN1c1cnc(C(F)(F)F)cn1` [Compound 22-8, N-Hydroxy-1,1-dimethyl-2-(5-(trifluoromethyl)pyrazin-2-yl)isoindoline-4-carboxamide] the IC50 (HDAC5) was > 1000 nM, the IC50 (HDAC7) was > 1000 nM and the IC50 (HDAC9) was > 1000 nM. For the same molecule, the microsomal CLint ([1]; Table 6) was < 50 µL/min/mg, the solubility [4] was 30 to 55 µM (≈ 10.6 to 19.4 µg/mL) and the Bioavailability [6, 9] was 81 % F. It also gave a t1/2 [6, 9] of 10.2 h, a t1/2 ([6]; IV 1 mg/kg, male Balb/c nude mice) of 9.4 h and an AUC(0-t) [6, 10] of 3.8 µM·h. For the same molecule, the Cmax [6, 10] was 4.2 µM, the half-life [6, 10] was 10.2 h and the AUC(0-t) [6, 11] was 1 µM·h. It also gave a C0 [6, 11] of 3.5 µM, a clearance [6, 11] of 42 mL/min/kg and a half-life [6, 11] of 9.4 h. The Vd ([6]; mouse, in vivo, IV 1 mg/kg, male Balb/c nude mice, read-out: Vss) was 18 L/kg and the “time free drug levels maintained over the cellular IC50” value ([6]; single 5 mg/kg i.p. dose, mice) was “up to 4 h”.
With `O=C(NO)c1cccc2c1CN(c1ccc(C(F)(F)F)cn1)C2` [Compound 45-1, N-hydroxy-2-(5-(trifluoromethyl)pyridin-2-yl)isoindoline-4-carboxamide] the IC50 (full-length human HDAC11 [2]) was < 500 nM, the “HDAC11 potency, in words” value (full-length human HDAC11 [3]) was “improved potency” and the IC50 (full-length human HDAC11 [3]; Table 5, read-out: HDAC11 IC50) was < 500 nM. For the same molecule, the microsomal CLint ([1]; Table 5) was 51 to 100 µL/min/mg, the “microsomal stability, in words” value [1] was “significant loss of microsomal stability” and the LipE (HDAC11; pIC50 HDAC11 - clogD7.4, Table 5) was “++ (indicates 5.5<LipE≤6.5)”.
In the case of `O=C(NO)c1cccc2c1CCN(c1nc3ccccc3[nH]1)C2` [Compound 50-2], the “HDAC11 potency, in words” value (full-length human HDAC11 [3]) is reported as “only modest HDAC11 activity”, the IC50 (full-length human HDAC11 [3]; [12]) is reported as 510 to 2000 nM and the IC50 (full-length human HDAC11 [3]; Table 4, read-out: HDAC11 IC50) is reported as > 1000 nM. The IC50 (HDAC6; [13]) was > 2000 nM, the IC50 (HDAC6; Table 4, read-out: HDAC6 IC50) was > 1000 nM and the “HDAC6 potency, in words” value (HDAC6; text comparison with lead 50-4) was “no significant HDAC6 potency”. The microsomal CLint ([1]; Table 4, read-out: m-CL-int) was < 50 µL/min/mg and the LipE (HDAC11; [14]) was “+ (indicates LipE≤5.5)”.
With `O=C(NO)c1cccc2c1CCN(c1nc3ccccc3[nH]1)CC2` [Compound 50-3] the IC50 (full-length human HDAC11 [3]; Table 4, read-out: HDAC11 IC50) was < 500 nM, the “increase in potency against HDAC11” value (full-length human HDAC11 [3]; relative to the tetrahydroisoquinoline core) was > 10 fold and the IC50 (HDAC6; Table 4, read-out: HDAC6 IC50) was > 1000 nM. For the same molecule, the microsomal CLint ([1]; Table 4, read-out: m-CL-int) was > 100 µL/min/mg and the LipE (HDAC11; [14]) was “+ (indicates LipE≤5.5)”.
In the case of `O=C(NO)c1ccc2c(c1)CN(c1nc3ccccc3[nH]1)CC2` [Compound 50-4], the IC50 (full-length human HDAC11 [3]; [12]) is reported as > 2000 nM and the IC50 (HDAC6; [13]) is reported as < 500 nM.
For `O=C(NO)c1ccc2c(c1)CCN(c1nc3ccccc3[nH]1)C2` [Compound 50-5], the “HDAC11 potency, in words” value (full-length human HDAC11 [3]) was “loss of HD AC 11 potency”, the IC50 (full-length human HDAC11 [3]; [12]) was > 2000 nM and the IC50 (HDAC6; [13]) was < 500 nM.
For `O=C(NO)c1cccc2c1CN(c1nc3ccccc3[nH]1)CC2` [Compound 50-6], the IC50 (full-length human HDAC11 [3]; [12]) was > 2000 nM, the “loss in activity vs. HDAC11” value (full-length human HDAC11 [3]; relative to initial lead 50-4) was 2 fold and the IC50 (HDAC6; [13]) was < 500 nM. For the same molecule, the “loss in potency vs. HDAC6” value (HDAC6; relative to initial lead 50-4) was 20 fold.
